Columns and labels:
Assay in all cases: relative viability (nuclei count vs DMSO), 5 days (fraction); higher = more cells survive
AZ628 + Bortezomib = compound: CC1=C(C=C(C=C1)NC(=O)C2=CC(=CC=C2)C(C)(C)C#N)NC3=CC4=C(C=C3)N=CN(C4=O)C [AZ628] + CC(C)C[C@H](NC(=O)[C@H](Cc1ccccc1)NC(=O)c1cnccn1)B(O)O [Bortezomib] (partner 0.002 µM)
In short: (§1)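 Cells from lung cancer lines were seeded into 1536-well plates and, one day later, dosed by pin tool. Treatments were either a single drug or a fixed dose of an anchor drug with five library-drug doses (not always all listed) in √10 steps. After 5 days, nuclei were stained in a one-step fixation (final 0.05% Triton X-100, 1% formaldehyde, 1 ug/ml Hoechst) and counted on 4× images, and relative viability is the treated-to-vehicle nuclei ratio, as the median of duplicate plates.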

AZ628 + Foretinib = compound: CC1=C(C=C(C=C1)NC(=O)C2=CC(=CC=C2)C(C)(C)C#N)NC3=CC4=C(C=C3)N=CN(C4=O)C [AZ628] + COc1cc2c(Oc3ccc(NC(=O)C4(C(=O)Nc5ccc(F)cc5)CC4)cc3F)ccnc2cc1OCCCN1CCOCC1 [Foretinib] (partner 0.25 µM)
In short: as §1

AZ628 + Pictilisib = compound: CC1=C(C=C(C=C1)NC(=O)C2=CC(=CC=C2)C(C)(C)C#N)NC3=CC4=C(C=C3)N=CN(C4=O)C [AZ628] + CS(=O)(=O)N1CCN(Cc2cc3nc(-c4cccc5[nH]ncc45)nc(N4CCOCC4)c3s2)CC1 [Pictilisib] (partner 1 µM)
In short: as §1

QS11 + Linsitinib = compound: C1CC2=C(C1)C=C(C=C2)OC3=NC(=C4C(=N3)N(C=N4)CC5=CC=C(C=C5)C6=CC=CC=C6)N[C@@H](CC7=CC=CC=C7)CO [QS11] + C[C@]1(O)C[C@@H](c2nc(-c3ccc4ccc(-c5ccccc5)nc4c3)c3c(N)nccn32)C1 [Linsitinib] (partner 1 µM)
In short: as §1

## LCLC-97TM1
AZ628 + Bortezomib; first compound 0.08 µM
  relative viability: 0.643
AZ628 + Bortezomib; first compound 0.253 µM
  relative viability: 0.381
AZ628 + Bortezomib; first compound 0.8 µM
  relative viability: 0.199
AZ628 + Bortezomib; first compound 2.53 µM
  relative viability: 0.522
AZ628 + Bortezomib; first compound 8 µM
  relative viability: 0.108
AZ628 + Foretinib; first compound 0.08 µM
  relative viability: 0.95
AZ628 + Foretinib; first compound 0.253 µM
  relative viability: 0.867
AZ628 + Foretinib; first compound 0.8 µM
  relative viability: 0.805
AZ628 + Foretinib; first compound 2.53 µM
  relative viability: 0.682
AZ628 + Foretinib; first compound 8 µM
  relative viability: 0.301
AZ628 + Pictilisib; first compound 0.08 µM
  relative viability: 0.201
AZ628 + Pictilisib; first compound 0.253 µM
  relative viability: 0.183
AZ628 + Pictilisib; first compound 0.8 µM
  relative viability: 0.203
AZ628 + Pictilisib; first compound 2.53 µM
  relative viability: 0.141
AZ628 + Pictilisib; first compound 8 µM
  relative viability: 0.12
QS11 + Linsitinib; first compound 0.08 µM
  relative viability: 0.15
QS11 + Linsitinib; first compound 0.253 µM
  relative viability: 0.17
QS11 + Linsitinib; first compound 0.8 µM
  relative viability: 0.233
QS11 + Linsitinib; first compound 2.53 µM
  relative viability: 0.237
QS11 + Linsitinib; first compound 8 µM
  relative viability: 0.293

— the supplement of paper PMC10307832
